Measurements as given in patent US8628771B2, “CA IX-specific inhibitors” (Institute of Virology Slovak Academy of Sciences, priority 2002, dated 2014).
Values joined by “and” are separate entries in the source; they are usually repeats but may differ in a detail not shown here. Identical values can stand only once. Like-named read-outs stand apart in the source and are kept apart here.

Legend:
hCA IX = hCA IX (Homo sapiens, UniProt Q16790); assay: CA CO2 hydrase activity assay, tumor-associated isozyme hCA IX
Description: An SX.18MV-R Applied Photophysics stopped-flow instrument has been used for assaying the CA CO2 hydration activity assays [44]. […] Inhibitor and enzyme solutions were preincubated together for 10 min at room temperature prior to assay, in order to allow for the formation of the E-I complex.

bCA IV = biological target: T1, bCA IV (Bos taurus, UniProt Q95323); assay: CA esterase activity assay, isozyme bCA IV; format: biochemical, bovine; conditions: read-out: KI bCA IV
T1 construct: CA IV was isolated from bovine lung microsomes as described by Maren et al; from tissue; host or cells: bovine lung microsomes
T1 sequence (Q95323 19-284): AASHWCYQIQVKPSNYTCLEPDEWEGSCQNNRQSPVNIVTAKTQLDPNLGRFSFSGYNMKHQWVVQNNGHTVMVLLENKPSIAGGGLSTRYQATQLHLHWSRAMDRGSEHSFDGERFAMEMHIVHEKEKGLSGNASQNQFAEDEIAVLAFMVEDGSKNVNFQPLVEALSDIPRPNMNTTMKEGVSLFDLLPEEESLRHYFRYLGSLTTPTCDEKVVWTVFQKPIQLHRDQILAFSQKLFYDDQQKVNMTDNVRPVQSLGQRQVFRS

hCA II = biological target: T2, hCA II (Homo sapiens, UniProt P00918); assay: CA esterase activity assay, isozyme hCA II; format: biochemical; conditions: read-out: KI hCA II
T2 construct: made in house; host or cells: Escherichia coli BL21 (DE3)

hCA I = biological target: T3, hCA I (Homo sapiens, UniProt P00915); assay: CA esterase activity assay, isozyme hCA I; format: biochemical; conditions: read-out: KI hCA I
T3 construct: made in house; host or cells: Escherichia coli BL21 (DE3)
T3 sequence (P00915 whole entry): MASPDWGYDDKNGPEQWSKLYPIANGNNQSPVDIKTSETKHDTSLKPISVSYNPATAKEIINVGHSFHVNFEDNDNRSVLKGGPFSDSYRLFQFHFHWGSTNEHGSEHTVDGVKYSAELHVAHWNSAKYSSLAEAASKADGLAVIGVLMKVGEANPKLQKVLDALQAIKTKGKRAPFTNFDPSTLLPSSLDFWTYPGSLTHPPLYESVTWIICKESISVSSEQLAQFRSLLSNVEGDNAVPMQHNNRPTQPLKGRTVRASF

[1] = read-out: KI hCA IX, Table 2, catalytic domain of the human, cloned isozyme
[2] = Table 2, from bovine lung microsomes
[3] = Table 2, human (cloned) isozymes
[4] = KI against CA IX, text discussion of Tables 1-3

SMILES: CCCCc1cc(-c2ccccc2)cc(-c2ccccc2)[n+]1Cc1ccc(S(N)(=O)=O)cc1.[O-][Cl+3]([O-])([O-])[O-] [Compound 50]
- Ki (hCA IX; [1]): 135 nM
- Ki (bCA IV; [2]): 2100 nM
- Ki (hCA II; [3]): 595 nM
- Ki (hCA I; [3]): 300000 nM

SMILES: CC(C)(C)c1cc(-c2ccccc2)cc(-c2ccccc2)[n+]1Cc1ccc(S(N)(=O)=O)cc1 [Compound 51]
- Ki (bCA IV): 1070 nM
- Ki (hCA II; [3]): 321 nM
- Ki (hCA I; [3]): 110000 nM

SMILES: NS(=O)(=O)c1ccc(C[n+]2c(-c3ccccc3)cc(-c3ccccc3)cc2-c2ccccc2)cc1 [Compound 52]
- Ki (hCA IX): 64 to 135 nM
- Ki (hCA IX; [1]): 120 nM
- Ki (bCA IV; [2]): 1960 nM
- Ki (hCA II; [3]): 472 nM
- Ki (hCA I; [3]): 280000 nM

SMILES: NS(=O)(=O)c1ccc(C[n+]2c(-c3ccccc3)cccc2-c2ccccc2)cc1 [Compound 53]
- Ki (hCA IX): 64 to 135 nM
- Ki (hCA IX; [1]): 106 nM
- Ki (bCA IV; [2]): 1950 nM
- Ki (hCA II; [3]): 493 nM
- Ki (hCA I; [3]): 280000 nM

SMILES: Cc1cc(C)[n+](Cc2ccc(S(N)(=O)=O)cc2)c(C)c1C [Compound 54]
- Ki (hCA IX; [4]): 6 to 54 nM
- Ki (hCA IX; [1]): 35 nM
- Ki (bCA IV; [2]): 51 nM
- Ki (hCA II): 30 nM
- Ki (hCA I; [3]): 3000 nM

SMILES: Cc1cc(C)[n+](CCc2ccc(S(N)(=O)=O)cc2)c(C(C)C)c1 [Compound 56]
- Ki (hCA IX; [1]): 31 nM
- Ki (bCA IV; [2]): 32 nM
- Ki (hCA II; [3]): 15 nM
- Ki (hCA I; [3]): 2000 nM

SMILES: Cc1cc(C(C)C)[n+](CCc2ccc(S(N)(=O)=O)cc2)c(C(C)C)c1 [Compound 57]
- Ki (hCA IX; [1]): 49 nM
- Ki (bCA IV; [2]): 70 nM
- Ki (hCA II; [3]): 20 nM
- Ki (hCA I; [3]): 3000 nM

SMILES: Cc1cc(-c2ccccc2)cc(C)[n+]1CCc1ccc(S(N)(=O)=O)cc1 [Compound 58]
- Ki (hCA IX; [4]): < 10 nM
- Ki (hCA IX; [1]): 6 nM
- Ki (bCA IV; [2]): 20 nM
- Ki (hCA II; [3]): 8 nM
- Ki (hCA I; [3]): 1000 nM

SMILES: CCc1cc(-c2ccccc2)cc(CC)[n+]1CCc1ccc(S(N)(=O)=O)cc1 [Compound 59]
- Ki (hCA IX): < 10 nM
- Ki (hCA IX; [1]): 8 nM
- Ki (bCA IV; [2]): 21 nM
- Ki (hCA II; [3]): 9 nM
- Ki (hCA I; [3]): 1000 nM

SMILES: CCCc1cc(-c2ccccc2)cc(CCC)[n+]1CCc1ccc(S(N)(=O)=O)cc1 [Compound 60]
- Ki (hCA IX): 160 to 450 nM
- Ki (hCA IX; [1]): 205 nM
- Ki (bCA IV; [2]): 82 nM
- Ki (hCA II; [3]): 42 nM
- Ki (hCA I; [3]): 7000 nM

SMILES: CCc1cc(-c2ccccc2)cc(-c2ccccc2)[n+]1CCc1ccc(S(N)(=O)=O)cc1 [Compound 63]
- Ki (hCA IX; [1]): 70 nM
- Ki (hCA II; [3]): 220 nM
- Ki (hCA I; [3]): 40000 nM

SMILES: CCCc1cc(-c2ccccc2)cc(-c2ccccc2)[n+]1CCc1ccc(S(N)(=O)=O)cc1 [Compound 64]
- Ki (hCA IX; [1]): 84 nM
- Ki (bCA IV): 1060 nM
- Ki (hCA II; [3]): 270 nM
- Ki (hCA I; [3]): 112000 nM

SMILES: CC(C)c1cc(-c2ccccc2)cc(-c2ccccc2)[n+]1CCc1ccc(S(N)(=O)=O)cc1 [Compound 65]
- Ki (hCA IX; [1]): 78 nM
- Ki (hCA II; [3]): 350 nM
- Ki (hCA I): 94000 nM

SMILES: CCCCc1cc(-c2ccccc2)cc(-c2ccccc2)[n+]1CCc1ccc(S(N)(=O)=O)cc1 [Compound 66]
- Ki (hCA IX; [1]): 120 nM
- Ki (bCA IV; [2]): 2010 nM
- Ki (hCA II; [3]): 544 nM
- Ki (hCA I; [3]): 290000 nM

SMILES: CC(C)(C)c1cc(-c2ccccc2)cc(-c2ccccc2)[n+]1CCc1ccc(S(N)(=O)=O)cc1 [Compound 67]
- Ki (bCA IV; [2]): 1000 nM
- Ki (hCA II; [3]): 275 nM
- Ki (hCA I; [3]): 92000 nM

SMILES: NS(=O)(=O)c1ccc(CC[n+]2c(-c3ccccc3)cc(-c3ccccc3)cc2-c2ccccc2)cc1 [Compound 68]
- Ki (hCA IX): 64 to 135 nM
- Ki (hCA IX; [1]): 95 nM
- Ki (hCA II; [3]): 419 nM
- Ki (hCA I; [3]): 270000 nM

SMILES: NS(=O)(=O)c1ccc(CC[n+]2c(-c3ccccc3)cccc2-c2ccccc2)cc1 [Compound 69]
- Ki (hCA IX): 64 to 135 nM
- Ki (hCA IX; [1]): 81 nM
- Ki (bCA IV; [2]): 1900 nM
- Ki (hCA II): 420 nM
- Ki (hCA I; [3]): 265000 nM

SMILES: Cc1cc(C)[n+](CCc2ccc(S(N)(=O)=O)cc2)c(C)c1C [Compound 70]
- Ki (hCA IX; [4]): 6 to 54 nM and < 10 nM
- Ki (hCA IX; [1]): 8 nM
- Ki (bCA IV; [2]): 21 nM
- Ki (hCA II; [3]): 10 nM
- Ki (hCA I; [3]): 2000 nM
